Tests used:
insulin receptor = conditions: cited from earlier work
[1] = cited from earlier work
[2] = target: human insulin receptor, isoform B (hIR, IR-B) (human) (UniProt P06213)

Substance: des-hexapeptide(B25-B30)-[PheB24-α-carboxamide]insulin
- receptor affinity relative to native insulin (fold lower) (insulin receptor): ~ 20 fold

Substance: HisA8 human insulin: human insulin with ThrA8 substituted by histidine (literature)
- increase in potency on substitution of human insulin ThrA8 by histidine [1]: three-fold

Substance: des-heptapeptide(B24-B30)-[GlyB23-α-carboxamide]insulin
- receptor affinity relative to native insulin (fold lower) (insulin receptor): ~ 500 fold

Substance: DOI with TyrB20 substitution (peptide)
- bioactivity (insulin receptor activation assay), fold increase against DOI [2]: 5 fold

Substance: des-pentapeptide(B26-B30)-[PheB25-α-carboxamide]insulin
- receptor affinity relative to native insulin (fold lower) (insulin receptor): native-like
